These results are taken from the NIST ThermoML archive (doi:10.1021/je060260h).

For orientation: refractive index means the speed of light in vacuum divided by its phase velocity in the sample.

The nature of this data set: refractive index (Na D-line) (dimensionless). The following applies: 298.15 K; 101.33 kPa; Liquid; Standard Abbe refractometry.

Molecules are shown by their SMILES. Numbers after ± are expanded uncertainties.

Regarding `CCCCn1cc[n+](C)c1.F[P-](F)(F)(F)(F)F` [1-butyl-3-methylimidazolium hexafluorophosphate], the refractive index was found to be 1.40925 ± 0.00037.

As for `CCCCO` [butan-1-ol], the refractive index is reported as 1.39686 ± 0.00033.
